Results as given in EP4818157A1, “N-SUBSTITUTED CYCLIC AMIDE COMPOUND” (Kissei Pharmaceutical Co., Ltd., priority 2023, dated 2025).

molecular target: T1, human TSHR (Homo sapiens, UniProt P16473); experiment: Measurement of antagonist activity using TSH-induced cAMP production in human TSHR-stably expressing CHO cells; format: cell-based; conditions: human TSH final concentration 50 ng/mL
T1 construct: expressed in transfected cells
Experimental: Measurement of Antagonist Activity Using TSH-induced cAMP Production in Human TSHR-stably Expressing CHO Cells as an Indicator
A gene sequence of human TSHR (reference number NM_000369.2) was inserted into a multiple cloning site of pcDNA3.1(+). The prepared plasmid vector was introduced into CHO cells by a lipofection method to establish human TSHR stably expressing CHO cells. The obtained cells were seeded in a poly-D-lysine-coated 96-well plate at 5 x 10^4 cells/well, and cultured for 1 day in F12 medium containing 10% FBS, 400 µg/mL G418, 50 U/mL penicillin, and 50 µg/mL streptomycin under conditions of 37°C and 5% CO2. After removing a medium, the cells were washed twice with 100 µL per well of an assay buffer (Hanks' Balanced Salt Solution containing 20 mM HEPES and 1 mM IBMX). 30 µL of an assay buffer containing a test compound was added to a well, and the mixture was incubated at room temperature for 15 minutes. Next, 30 µL of an assay buffer containing human TSH (R&D Systems, Inc., final concentration 50 ng/mL) was added, and the mixture was incubated at 37°C for 1 hour. The supernatant was removed, and Lysis and Detection Buffer 2 (Cisbio) was added to prepare a cell lysate by incubating at room temperature for 1 hour. According to the instructions for use of a cAMP Gs HiRange kit (Cisbio), a cell lysate was reacted with d2-labeled cAMP and an anti-cAMP Europium Cryptate labeled antibody (Cisbio) in a 384-well white microplate. Next, a fluorescence intensity ratio (measurement wavelengths 665 nm/620 nm) was measured using a multiplate reader (PHERAstar FSX, BMG LABTECH Japan). A fluorescence intensity ratio of each sample was converted into a cAMP content using a standard curve. A cAMP content was converted into a percentage of a control value, and a cAMP production rate was calculated. Using Prism (Graph Pad Software Inc.), a cAMP production rate was plotted against a test compound concentration, and an IC50 value was calculated. The IC50 of each test compound is shown in the above tables. In the tables, IC50 < 3.0 µM was denoted as A, and 3.0 µM ≤ IC50 < 30 µM was denoted as B. The case where activity was observed but an IC50 value could not be calculated was denoted as C.

T1 sequence (P16473 21-764): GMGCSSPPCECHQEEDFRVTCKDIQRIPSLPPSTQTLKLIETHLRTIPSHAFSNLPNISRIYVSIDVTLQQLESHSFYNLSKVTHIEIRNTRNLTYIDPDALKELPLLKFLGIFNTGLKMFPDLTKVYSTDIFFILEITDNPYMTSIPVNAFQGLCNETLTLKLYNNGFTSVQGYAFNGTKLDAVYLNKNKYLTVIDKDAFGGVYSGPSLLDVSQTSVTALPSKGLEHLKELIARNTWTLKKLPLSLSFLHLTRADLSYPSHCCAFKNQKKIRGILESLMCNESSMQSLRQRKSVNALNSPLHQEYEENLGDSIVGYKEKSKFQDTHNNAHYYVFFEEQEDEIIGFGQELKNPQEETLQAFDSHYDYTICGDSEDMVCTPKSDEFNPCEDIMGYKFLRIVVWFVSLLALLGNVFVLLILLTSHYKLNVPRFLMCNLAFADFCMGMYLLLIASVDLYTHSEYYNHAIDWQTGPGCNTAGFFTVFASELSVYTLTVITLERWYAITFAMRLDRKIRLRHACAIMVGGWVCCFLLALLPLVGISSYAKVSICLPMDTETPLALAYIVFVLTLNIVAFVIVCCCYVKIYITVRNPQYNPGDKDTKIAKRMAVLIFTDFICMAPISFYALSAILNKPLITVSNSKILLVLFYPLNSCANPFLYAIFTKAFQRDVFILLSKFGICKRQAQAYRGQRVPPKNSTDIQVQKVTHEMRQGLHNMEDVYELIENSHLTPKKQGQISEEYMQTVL

| IC50 | Compound |
| --- | --- |
| < 3 µM | NC(=O)N[C@@H]1Cc2ccc(C(F)F)cc2N(Cc2cc(OC(F)(F)F)ccc2F)C1=O [Example C-18, (R)-1-(7-(difluoromethyl)-1-(2-fluoro-5-(trifluoromethoxy)benzyl)-2-oxo-1,2,3,4-tetrahydroquinolin-3-yl)urea] |
| < 3 µM | NC(=O)N[C@@H]1Cc2ccc(C(F)F)cc2N(Cc2cc(S(F)(F)(F)(F)F)ccc2F)C1=O [Example C-19, (R)-1-(7-(difluoromethyl)-1-(2-fluoro-5-(pentafluorosulfanyl)benzyl)-2-oxo-1,2,3,4-tetrahydroquinolin-3-yl)urea] |
| < 3 µM | NC(=O)N[C@@H]1Cc2ccc(C(F)F)cc2N(Cc2cc(C(O)(C(F)(F)F)C(F)(F)F)ccc2F)C1=O [Example C-20, (R)-1-(7-(difluoromethyl)-1-(2-fluoro-5-(1,1,1,3,3,3-hexafluoro-2-hydroxypropan-2-yl)benzyl)-2-oxo-1,2,3,4-tetrahydroquinolin-3-yl)urea] |
| < 3 µM | NC(=O)N[C@@H]1Cc2ccc(F)cc2N(Cc2cc(C(F)(F)F)cc(Cl)c2F)C1=O [Example C-21, (R)-1-(1-(3-chloro-2-fluoro-5-(trifluoromethyl)benzyl)-7-fluoro-2-oxo-1,2,3,4-tetrahydroquinolin-3-yl)urea] |
| < 3 µM | NC(=O)N[C@@H]1Cc2cscc2N(Cc2cccc(C(F)(F)F)c2)C1=O [Example C-22, (R)-1-(2-oxo-1-(3-(trifluoromethyl)benzyl)-1,2,3,4-tetrahydrothieno[3,4-b]pyridin-3-yl)urea] |
| 3 to 30 µM | NC(=O)N[C@@H]1Cc2ccncc2N(Cc2cccc(C(F)(F)F)c2)C1=O [Example C-23, (R)-1-(2-oxo-1-(3-(trifluoromethyl)benzyl)-1,2,3,4-tetrahydro-1,7-naphthyridin-3-yl)urea] |
| 3 to 30 µM | CC(c1cc(C(F)(F)F)ccc1F)N1C(=O)[C@H](NC(N)=O)Cc2ccc(F)cc21 (stereo partly drawn) [Example C-24, 1-((3R)-7-fluoro-1-(1-(2-fluoro-5-(trifluoromethyl)phenyl)ethyl)-2-oxo-1,2,3,4-tetrahydroquinolin-3-yl)urea] |
| 3 to 30 µM | NC(=O)N[C@@H]1Cc2ccccc2N(CCc2ccccc2)C1=O [Example C-25, (R)-1-(2-oxo-1-phenethyl-1,2,3,4-tetrahydroquinolin-3-yl)urea] |
| > 30 µM | NC(=O)N[C@@H]1Cc2ccccc2N(CCCc2ccccc2)C1=O [Example C-26, (R)-1-(2-oxo-1-(3-phenylpropyl)-1,2,3,4-tetrahydroquinolin-3-yl)urea] |
| > 30 µM | NC(=O)N[C@@H]1Cc2ccccc2N(CC2CCCCC2)C1=O [Example C-27, (R)-1-(1-(cyclohexylmethyl)-2-oxo-1,2,3,4-tetrahydroquinolin-3-yl)urea] |
| < 3 µM | CNC(=O)N[C@@H]1Cc2ccc(C(F)(F)F)cc2N(Cc2cc(C(F)F)ccc2F)C1=O [Example C-28, (R)-1-(1-(5-(difluoromethyl)-2-fluorobenzyl)-2-oxo-7-(trifluoromethyl)-1,2,3,4-tetrahydroquinolin-3-yl)-3-methylurea] |
| > 30 µM | NC(=O)N[C@@H]1Cc2ccc(C(=O)O)cc2N(Cc2cc(C(F)(F)F)ccc2F)C1=O [Example C-29, (R)-1-(2-fluoro-5-(trifluoromethyl)benzyl)-2-oxo-3-ureido-1,2,3,4-tetrahydroquinolin-7-carboxylic acid] |
| 3 to 30 µM | NC(=O)N[C@@H]1Cc2ccc(C(N)=O)cc2N(Cc2cc(C(F)(F)F)ccc2F)C1=O [Example C-30, (R)-1-(2-fluoro-5-(trifluoromethyl)benzyl)-2-oxo-3-ureido-1,2,3,4-tetrahydroquinolin-7-carboxamide] |
| < 3 µM | C=CCc1ccc(F)c(CN2C(=O)[C@H](NC(N)=O)CC[C@H]2C(F)(F)F)c1 [Example D-1, 1-((3R,6S)-1-(5-allyl-2-fluorobenzyl)-2-oxo-6-(trifluoromethyl)piperidin-3-yl)urea] |
| < 3 µM | NC(=O)N[C@@H]1CC[C@@H](C(F)(F)F)N(Cc2cc(CCC3CC3)ccc2F)C1=O [Example D-2, 1-((3R,6S)-1-(5-(2-cyclopropylethyl)-2-fluorobenzyl)-2-oxo-6-(trifluoromethyl)piperidin-3-yl)urea] |
| 3 to 30 µM | NC(=O)N[C@@H]1CC[C@@H]2CC[C@@H](Cc3ccccc3C(F)(F)F)N2C1=O [Example D-3, 1-((3S,6R,8aR)-5-oxo-3-(2-(trifluoromethyl)benzyl)octahydroindolizin-6-yl)urea] |

| IC50 | Compound |
| --- | --- |
| 3 to 30 µM | NC(=O)N[C@@H]1CC[C@@H](CO)N(Cc2cc(C(F)(F)F)ccc2F)C1=O [Example D-4, 1-((3R,6S)-1-(2-fluoro-5-(trifluoromethyl)benzyl)-6-(hydroxymethyl)-2-oxopiperidin-3-yl)urea] |
| > 30 µM | NC(=O)N[C@@H]1CC[C@@H](CN2CCCC2)N(Cc2cc(C(F)(F)F)ccc2F)C1=O [Example D-5, 1-((3R,6S)-1-(2-fluoro-5-(trifluoromethyl)benzyl)-2-oxo-6-(pyrrolidin-1-ylmethyl)piperidin-3-yl)urea] |
| < 3 µM | COC[C@@H]1CC[C@@H](NC(N)=O)C(=O)N1Cc1cc(C(F)(F)F)ccc1F [Example D-6, 1-((3R,6S)-1-(2-fluoro-5-(trifluoromethyl)benzyl)-6-(methoxymethyl)-2-oxopiperidin-3-yl)urea] |
| < 3 µM | CCOC[C@@H]1CC[C@@H](NC(N)=O)C(=O)N1Cc1cc(C(F)(F)F)ccc1F [Example D-7, 1-((3R,6S)-6-(ethoxymethyl)-1-(2-fluoro-5-(trifluoromethyl)benzyl)-2-oxopiperidin-3-yl)urea] |
| > 30 µM | CC(=O)NC[C@@H]1CC[C@@H](NC(N)=O)C(=O)N1Cc1cc(C(F)(F)F)ccc1F [Example D-8, N-(((2S,5R)-1-(2-fluoro-5-(trifluoromethyl)benzyl)-6-oxo-5-ureidopiperidin-2-yl)methyl)acetamide] |
| > 30 µM | CN(C)C[C@@H]1CC[C@@H](NC(N)=O)C(=O)N1Cc1cc(C(F)(F)F)ccc1F [Example D-9, 1-((3R,6S)-6-((dimethylamino)methyl)-1-(2-fluoro-5-(trifluoromethyl)benzyl)-2-oxopiperidin-3-yl)urea] |
| < 3 µM | NC(=O)Nc1ccc(CO)n(Cc2cc(C(F)(F)F)cc(Cl)c2F)c1=O [Example E-1, 1-(1-(3-chloro-2-fluoro-5-(trifluoromethyl)benzyl)-6-(hydroxymethyl)-2-oxo-1,2-dihydropyridin-3-yl)urea] |
| < 3 µM | COCc1ccc(NC(N)=O)c(=O)n1Cc1cc(C(F)(F)F)cc(Cl)c1F [Example E-2, 1-(1-(3-chloro-2-fluoro-5-(trifluoromethyl)benzyl)-6-(methoxymethyl)-2-oxo-1,2-dihydropyridin-3-yl)urea] |
| < 3 µM | CN(C)Cc1ccc(NC(N)=O)c(=O)n1Cc1cc(C(F)(F)F)cc(Cl)c1F [Example E-3, 1-(1-(3-chloro-2-fluoro-5-(trifluoromethyl)benzyl)-6-((dimethylamino)methyl)-2-oxo-1,2-dihydropyridin-3-yl)urea] |
| < 3 µM | NC(=O)Nc1ccc(CN2CCCC2)n(Cc2cc(C(F)(F)F)cc(Cl)c2F)c1=O [Example E-4, 1-(1-(3-chloro-2-fluoro-5-(trifluoromethyl)benzyl)-2-oxo-6-(pyrrolidin-1-ylmethyl)-1,2-dihydropyridin-3-yl)urea] |
| < 3 µM | C=CCc1ccc(NC(N)=O)c(=O)n1Cc1cc(C(F)(F)F)cc(Cl)c1F [Example E-5, 1-(6-allyl-1-(3-chloro-2-fluoro-5-(trifluoromethyl)benzyl)-2-oxo-1,2-dihydropyridin-3-yl)urea] |
| < 3 µM | NC(=O)Nc1ccc(CN2CCCC2)n(Cc2cc(C(F)(F)F)ccc2F)c1=O [Example E-6, 1-(1-(2-fluoro-5-(trifluoromethyl)benzyl)-2-oxo-6-(pyrrolidin-1-ylmethyl)-1,2-dihydropyridin-3-yl)urea] |
| 3 to 30 µM | NC(=O)Nc1ccc2n(c1=O)CC(c1cccc(C(F)(F)F)c1)C2 (stereo not shown) [Example E-7, 1-(5-oxo-2-(3-(trifluoromethyl)phenyl)-1,2,3,5-tetrahydroindolizin-6-yl)urea] |
| 3 to 30 µM | Cc1ccc(NC(=O)C(F)(F)F)c(=O)n1Cc1cc(C(F)(F)F)cc(Cl)c1F [Example E-8, N-(1-(3-chloro-2-fluoro-5-(trifluoromethyl)benzyl)-6-methyl-2-oxo-1,2-dihydropyridin-3-yl)-2,2,2-trifluoroacetamide] |
| < 3 µM | Cc1ccc(NC(=O)N2CCC2)c(=O)n1Cc1cc(C(F)(F)F)cc(Cl)c1F [Example E-9, N-(1-(3-chloro-2-fluoro-5-(trifluoromethyl)benzyl)-6-methyl-2-oxo-1,2-dihydropyridin-3-yl)azetidine-1-carboxamide] |
